Where two headings read alike, the source gives them in different places.
Experiments:
human recombinant MAO A = biological target: T1, human recombinant MAO A (Homo sapiens, UniProt P21397); assay: biochemical; type: biochemical; settings: for inhibition at 10 µM: read-out: hMAO-A % inhibition at 10 μM
T1 construct: purchased Sigma Aldrich (Milan, Italy); host or cells: baculovirus-infected insect cells
T1 sequence (P21397 1-527): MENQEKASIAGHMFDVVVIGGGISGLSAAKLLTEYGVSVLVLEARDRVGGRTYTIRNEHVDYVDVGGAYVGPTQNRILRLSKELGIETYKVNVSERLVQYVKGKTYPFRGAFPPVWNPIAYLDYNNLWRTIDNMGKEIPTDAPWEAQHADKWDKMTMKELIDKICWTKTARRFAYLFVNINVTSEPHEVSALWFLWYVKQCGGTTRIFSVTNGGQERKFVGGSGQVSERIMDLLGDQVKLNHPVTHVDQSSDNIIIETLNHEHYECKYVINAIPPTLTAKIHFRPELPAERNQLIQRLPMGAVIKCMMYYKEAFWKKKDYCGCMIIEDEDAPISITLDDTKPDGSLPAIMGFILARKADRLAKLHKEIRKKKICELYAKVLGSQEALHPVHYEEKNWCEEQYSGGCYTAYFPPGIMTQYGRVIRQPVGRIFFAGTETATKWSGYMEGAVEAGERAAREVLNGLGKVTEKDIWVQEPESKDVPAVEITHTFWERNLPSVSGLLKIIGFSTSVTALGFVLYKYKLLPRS
Experimental: (§1) Human isoforms of MAOs (from baculovirus-infected insect cells) and ChEs (human recombinant AChE and BChE from human serum), purchased from Sigma Aldrich (Milan, Italy), were used for inhibition assays. Experiments were performed in 96-well plates (Greiner Bio-One, Kremsmünster, Austria) on the Infinite M1000 Pro plate reader (Tecan, Cernusco s.N., Italy), using already published protocols.
After the addition of human recombinant MAO A (250 U/mg) or MAO B (59 U/mg) and a further 30 min of incubation, NaOH was added, and the fluorescence read at 310/400 nm excitation/emission wavelength. […] IC50 is expressed as mean ± SD of three independent measurements, each one performed in duplicate. For the kinetic study on the inhibition mechanism of MAO B, three diverse scalar concentrations of the inhibitor and seven concentrations of kynuramine were used.
(§2) The IC50 values, Michaelis–Menten curve fitting and inhibition constant (Ki) were calculated by nonlinear regression, using Prism software.

human recombinant MAO B = biological target: T2, human recombinant MAO B (Homo sapiens, UniProt P27338); assay: biochemical; type: biochemical; settings: for inhibition at 10 µM: read-out: hMAO-B % inhibition at 10 μM
T2 construct: purchased Sigma Aldrich (Milan, Italy); host or cells: baculovirus-infected insect cells
T2 sequence (P27338 1-520): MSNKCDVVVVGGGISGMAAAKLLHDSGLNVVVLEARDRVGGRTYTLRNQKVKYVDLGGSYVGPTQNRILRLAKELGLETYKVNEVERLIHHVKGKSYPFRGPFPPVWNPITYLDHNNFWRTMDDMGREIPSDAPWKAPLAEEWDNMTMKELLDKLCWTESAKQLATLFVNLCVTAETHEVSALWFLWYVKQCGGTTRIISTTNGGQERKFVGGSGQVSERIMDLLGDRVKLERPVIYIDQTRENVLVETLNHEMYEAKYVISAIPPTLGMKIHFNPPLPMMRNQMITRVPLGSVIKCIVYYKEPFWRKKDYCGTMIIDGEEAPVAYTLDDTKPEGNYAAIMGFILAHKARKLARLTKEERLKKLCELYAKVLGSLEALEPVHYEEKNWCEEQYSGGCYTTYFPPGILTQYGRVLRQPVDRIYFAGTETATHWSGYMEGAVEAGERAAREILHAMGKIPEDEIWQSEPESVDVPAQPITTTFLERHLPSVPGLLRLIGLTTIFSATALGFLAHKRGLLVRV

BChE from human serum = biological target: T3, BChE from human serum (Homo sapiens, UniProt P06276); assay: biochemical; settings: for inhibition at 10 µM: read-out: hBChE % inhibition at 10 μM; for inhibition at 10 µM / hBChE % inhibition at 10 μM: 10 μM concentration, mean ± S.D. (n = 3), n.i. = no inhibition at 10 μM
T3 construct: ChEs (human recombinant AChE and BChE from human serum), purchased from Sigma Aldrich (Milan, Italy); purchased Sigma Aldrich (Milan, Italy); host or cells: human serum (natural source)
Experimental: as §1
(§3) The inhibition of human recombinant AChE or BChE from human serum was determined by applying Ellman’s spectrophotometric method as described in previously reported protocols. The AChE activity was determined in an assay solution containing AChE (0.09 U/mL), 5,5′-dithiobis(2-nitrobenzoic acid) (i.e., the Ellman’s reagent, 0.33 mM), the test compound (10 μM concentration, or seven scalar concentrations for compounds achieving > 60% enzyme inhibition at 10 μM), in 0.1 M PBS pH 8.0. […] The BChE inhibitory activity was similarly determined by using BChE (0.09 U/mL) and butyrylthiocholine iodide (5 μM) as the substrate.
as §2

human recombinant AChE = biological target: T4, human recombinant AChE (Homo sapiens, UniProt P22303); assay: biochemical; settings: for inhibition at 10 µM: read-out: hAChE % inhibition at 10 μM
T4 construct: purchased Sigma Aldrich (Milan, Italy)
Experimental: as §1, §3, §2

[1] = system: MCF-7, human breast carcinoma cell; assay: Antiproliferative activity, sulforhodamine-B (SRB) assay, MCF-7; type: cell-based; settings: read-out: Antiproliferative activity IC50, MCF-7
Experimental: (§4) The SK-OV-3 ovarian cancer cell line, MCF-7 breast cancer line and HCT-116 colon cancer cell line were obtained from the National Cancer Institute, Biological Testing Branch (Frederick, MD, USA), and maintained in the logarithmic phase at 37 °C in a 5% CO2 humidified air in RPMI 1640 medium supplemented with 10% fetal calf serum, 2 mM glutamine, penicillin (100 U/mL) and streptomycin (0.1 mg/mL).
(§5) The growth inhibitory effects of compounds under investigation were compared to those of cisplatin (CDDP) and doxorubicin (DXR), used as positive controls, and evaluated by using the sulforhodamine-B (SRB) assay. Briefly, cells were seeded into 96-well microtiter plates in 100 µL of the appropriate culture medium at plating densities at 2500, 5000 and 8000 cells/well for MCF-7, HCT-116 and SKOV-3, respectively, depending upon the doubling time of individual cell lines. After seeding, microtiter plates were incubated at 37 °C for 24 h before adding the test compounds. After 24 h, several samples of each cell line were fixed in situ with cold trichloroacetic acid (TCA) to represent a measurement of the cell population at the time of compound addition. The test compounds were freshly dissolved in dimethyl sulfoxide (DMSO, 10^−2 M) and gradually diluted to different concentrations (0.79–50 µM) with a complete medium, so that the maximum DMSO/well ratio was 0.5% v/v. After the addition of different compound concentrations to triplicate wells, the plates were further incubated at 37 °C for 72 h. Cells were fixed in situ by the gentle addition of 50 µL of cold 50% w/v TCA (final concentration 10%) and incubated for 1 h at 4 °C. The supernatant was discarded, and the plates were washed with tap water and air-dried. SRB solution (100 µL) at 0.4% (w/v) in 1% acetic acid was added to each well, and the plates were incubated for 30 min at room temperature. After staining, the unbound dye was removed by washing with 1% acetic acid and the plates were air-dried. The bound stain was then solubilized with 10mM Trizma base and the absorbance was read on an automatic plate reader at 570 nm.

[2] = system: SK-OV-3, human ovarian carcinoma with intrinsic resistance to cisplatin; assay: Antiproliferative activity, sulforhodamine-B (SRB) assay, SK-OV-3; type: cell-based; settings: read-out: Antiproliferative activity IC50, SK-OV-3
Experimental: as §4, §5

[3] = system: HCT116, colon cancer cell line; assay: Antiproliferative activity, sulforhodamine-B (SRB) assay, HCT116; type: cell-based, human; settings: 72 h exposure, SRB assay, mean ± S.D., >50 = less than 50% growth inhibition at 50 μM, read-out: Antiproliferative activity IC50, HCT116
Experimental: as §4, §5

[4] = 72 h exposure, SRB assay, mean ± S.D., >50 = less than 50% growth inhibition at 50 μM

T3 sequence (P06276 29-602): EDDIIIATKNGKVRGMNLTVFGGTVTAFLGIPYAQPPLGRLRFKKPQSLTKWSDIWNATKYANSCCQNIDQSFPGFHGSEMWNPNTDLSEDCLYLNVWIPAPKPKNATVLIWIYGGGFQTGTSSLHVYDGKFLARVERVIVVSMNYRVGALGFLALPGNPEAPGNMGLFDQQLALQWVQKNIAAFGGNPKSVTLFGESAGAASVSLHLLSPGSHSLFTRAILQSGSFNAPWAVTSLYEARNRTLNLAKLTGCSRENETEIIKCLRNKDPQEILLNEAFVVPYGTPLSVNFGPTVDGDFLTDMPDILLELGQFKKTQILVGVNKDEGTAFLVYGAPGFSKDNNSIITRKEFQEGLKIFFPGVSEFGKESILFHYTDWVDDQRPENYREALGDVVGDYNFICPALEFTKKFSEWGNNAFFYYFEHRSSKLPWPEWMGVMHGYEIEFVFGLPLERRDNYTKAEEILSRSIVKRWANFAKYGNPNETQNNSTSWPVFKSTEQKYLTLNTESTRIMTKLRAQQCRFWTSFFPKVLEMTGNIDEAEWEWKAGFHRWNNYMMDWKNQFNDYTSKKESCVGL
T4 sequence (P22303 32-614): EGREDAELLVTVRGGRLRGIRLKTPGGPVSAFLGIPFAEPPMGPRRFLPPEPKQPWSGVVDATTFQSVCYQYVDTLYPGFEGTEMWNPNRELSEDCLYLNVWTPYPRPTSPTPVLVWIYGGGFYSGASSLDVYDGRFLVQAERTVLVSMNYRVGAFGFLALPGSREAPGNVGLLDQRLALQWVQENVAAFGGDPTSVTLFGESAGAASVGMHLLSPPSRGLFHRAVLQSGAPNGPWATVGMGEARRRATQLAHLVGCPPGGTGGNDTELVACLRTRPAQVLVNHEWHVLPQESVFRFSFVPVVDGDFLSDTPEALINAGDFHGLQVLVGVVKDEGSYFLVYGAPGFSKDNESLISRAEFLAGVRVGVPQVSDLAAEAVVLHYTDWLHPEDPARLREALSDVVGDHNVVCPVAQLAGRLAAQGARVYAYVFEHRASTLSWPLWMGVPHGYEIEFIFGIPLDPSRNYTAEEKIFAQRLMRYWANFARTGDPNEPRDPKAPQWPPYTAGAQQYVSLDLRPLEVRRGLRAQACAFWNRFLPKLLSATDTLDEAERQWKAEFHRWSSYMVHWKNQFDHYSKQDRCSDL

| SMILES | inhibition at 10 µM (human recombinant MAO A) | inhibition at 10 µM (human recombinant MAO B) | hBChE % inhibition at 10 μM (BChE from human serum) | inhibition at 10 µM (human recombinant AChE) | other results |
| --- | --- | --- | --- | --- | --- |
| CCOc1cccc2c(=O)c3c(oc12)C=CN(C(C)C)C3C#Cc1ccccc1 (centres unmarked) [3d, 6-Ethoxy-2-isopropyl-1-(phenylethynyl)-1,2-dihydro-10H-chromeno[3,2-c]pyridin-10-one] | 36% | 22% | – | – | inhibition at 10 µM (BChE from human serum): 10%; hAChE % inhibition at 10 μM (human recombinant AChE): n.i. |
| COc1cccc2c1C(=O)c1c(O)c3c(c(O)c1C2=O)C[C@@](O)(C(=O)CO)C[C@@H]3O[C@H]1C[C@H](N)[C@H](O)[C@H](C)O1 [Doxorubicin, doxorubicin, reference compound] | – | – | – | – | IC50 ([1]; Homo sapiens, MCF7, 72 h exposure, SRB assay, mean ± S.D., >50 = less than 50% growth inhibition at 50 μM): 0.18 ± 0.02 µM; IC50 ([2]; Homo sapiens, SK-OV-3, 72 h, 72 h exposure, SRB assay, mean ± S.D., >50 = less than 50% growth inhibition at 50 μM): 2.2 ± 0.02 µM; IC50 ([3]; Homo sapiens, HCT-116): 0.38 ± 0.03 µM |
| CN1CC[C@@]2(O)Oc3ccc(Br)cc3[C@@H](O)[C@H]2C1 (relative stereo) [7c, (4aR*,10S*,10aR*)-8-Bromo-2-methyl-1,2,3,4,10,10a-hexahydro-4aH-chromeno[3,2-c]pyridine-4a,10-diol] | 21% | 35% | – | – | inhibition at 10 µM (BChE from human serum): 12%; hAChE % inhibition at 10 μM (human recombinant AChE): n.i. |
| CN1CC=C2Oc3ccc(Cl)cc3C=C2C1 [2a, 8-Chloro-2,3-dihydro-2-methyl-1H-chromeno[3,2-c]pyridine] | – | 45% | n.i. | 25% | IC50 (human recombinant MAO A): 1.18 ± 0.07 µM; Selectivity for MAO A over MAO B (human recombinant MAO A; from MAO A and MAO B inhibition data): about tenfold; IC50 ([1]; Homo sapiens, MCF7, 72 h): 48.1 ± 4.21 µM; IC50 ([2]; Homo sapiens, SK-OV-3, 72 h): > 50 µM |
| CN1CCc2oc3ccccc3c(=O)c2C1 [1a, 1,2,3,4-tetrahydro-2-methylchromeno[3,2-c]pyridin-10-one] | 15% | 29% | n.i. | 34% | – |
| CCOc1cccc2c1O[C@]1(O)CCN(C)C[C@@H]1[C@@H]2O (relative stereo) [7e, (4aR*,10S*,10aR*)-6-Ethoxy-2-methyl-1,2,3,4,10,10a-hexahydro-4aH-chromeno[3,2-c]pyridine-4a,10-diol] | 19% | 25% | n.i. | – | hAChE % inhibition at 10 μM (human recombinant AChE): n.i. |
| CN1CC[C@@]2(O)Oc3ccccc3[C@@H](O)[C@@H]2C1 (relative stereo) [8a, (4aR*,10S*,10aS*)-2-Methyl-1,2,3,4,10,10a-hexahydro-4aH-chromeno[3,2-c]pyridine-4a,10-diol] | 8% | 42% | n.i. | 22% | – |
| N.N.[Cl][Pt][Cl] [Cisplatin, reference compound] | – | – | – | – | IC50 [1, 4]: 4.8 ± 2.2 µM; IC50 [2, 4]: 4.43 ± 0.32 µM; IC50 [3]: 5.02 ± 2.12 µM |
| CN1CC[C@@]2(O)Oc3ccccc3[C@@H](O)[C@H]2C1 (relative stereo) [7a, (4aR*,10S*,10aR*)-2-Methyl-1,2,3,4,10,10a-hexahydro-4aH-chromeno[3,2-c]pyridine-4a,10-diol] | 14% | 22% | n.i. | 24% | – |
| O[C@@H]1c2ccccc2O[C@]2(O)CCN(Cc3ccccc3)C[C@@H]12 (relative stereo) [8e, (4aR*,10S*,10aS*)-2-Benzyl-1,2,3,4,10,10a-hexahydro-4aH-chromeno[3,2-c]pyridine-4a,10-diol] | 12% | 41% | – | 25% | inhibition at 10 µM (BChE from human serum): 19% |
| CN1CC[C@@]2(O)Oc3ccc(Br)cc3[C@@H](O)[C@@H]2C1 (relative stereo) [8c, (4aR*,10S*,10aS*)-8-Bromo-2-methyl-1,2,3,4,10,10a-hexahydro-4aH-chromeno[3,2-c]pyridine-4a,10-diol] | 14% | 15% | n.i. | 45% | – |
| CN1C=Cc2oc3ccccc3c(=O)c2C1C#Cc1ccccc1 (centres unmarked) [3a, 2-Methyl-1-(phenylethinyl)-1H-chromeno[3,2-c]pyridine-10(2H)-one] | 35% | – | – | – | MAO B/A selectivity (human recombinant MAO B; from MAO B and MAO A inhibition data): more than twentyfold; IC50 (human recombinant MAO B; hMAO-B IC50, mean ± S.D., determined for compounds with more than 60% inhibition at 10 μM): 0.51 ± 0.021 µM; IC50 (BChE from human serum; mean ± S.D., determined for compounds with more than 60% inhibition at 10 μM, read-out: hBChE IC50): 8.42 ± 0.25 µM; IC50 (human recombinant AChE; mean ± S.D., determined for compounds with more than 60% inhibition at 10 μM, read-out: hAChE IC50): 6.79 ± 0.42 µM |
